ChEMBL document CHEMBL1201862, “PubChem BioAssay data set” (2004)
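Briefly, cells in 96-well plates were exposed to five compound concentrations for 48 h, and endpoints were estimated by linear interpolation. GI50 is the concentration that inhibits growth by half.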 Activity calls are given as the source filed them. No stated cut-off is given here; in the data, active = GI50 up to about 1.1 µM and inactive = higher. Residues, ends and D or L forms follow the SMILES beside them. *: point of attachment. Fmoc = O=C(OCC1c2ccccc2-c2ccccc21)*; Boc = CC(C)(C)OC(=O)*

Key:
Assay in all cases: NCI-60 cell line screen, 48 h
A549 = test system: A549
CCRF-CEM = test system: CCRF-CEM
HL-60 = test system: HL-60
HOP-62 = test system: HOP-62
HOP-92 = test system: HOP-92
IGROV-1 = test system: IGROV-1
KM12 = test system: KM12
Malme-3M = test system: Malme-3M
NCI-H23 = test system: NCI-H23
OVCAR-3 = test system: OVCAR-3
OVCAR-4 = test system: OVCAR-4
OVCAR-8 = test system: OVCAR-8
SF-268 = test system: SF-268
SF-295 = test system: SF-295
SK-MEL-5 = test system: SK-MEL-5
SNB-75 = test system: SNB-75
SW-620 = test system: SW-620
TK-10 = test system: TK-10
UACC-257 = test system: UACC-257
UACC-62 = test system: UACC-62

Row | SMILES | GI50 (A549) | GI50 (CCRF-CEM) | GI50 (HL-60) | GI50 (HOP-62) | GI50 (HOP-92) | GI50 (IGROV-1) | GI50 (KM12) | GI50 (Malme-3M) | GI50 (NCI-H23) | GI50 (OVCAR-3) | GI50 (OVCAR-4) | GI50 (OVCAR-8) | GI50 (SF-268) | GI50 (SF-295) | GI50 (SK-MEL-5) | GI50 (SNB-75) | GI50 (SW-620) | GI50 (TK-10) | GI50 (UACC-257) | GI50 (UACC-62)
1 | COc1ccc(-c2sc(Br)c3c2C(=O)C2OC(=O)NC32)cc1OC (stereo not given) | > 100 µM (inactive) | > 100 µM (inactive) | > 100 µM (inactive) | > 100 µM (inactive) | > 100 µM (inactive) | > 100 µM (inactive) | > 100 µM (inactive) | > 100 µM (inactive) | > 100 µM (inactive) | > 100 µM (inactive) | > 100 µM (inactive) | > 100 µM (inactive) | > 100 µM (inactive) | > 100 µM (inactive) | > 100 µM (inactive) | > 100 µM (inactive) | > 100 µM (inactive) | > 100 µM (inactive) | > 100 µM (inactive) | > 100 µM (inactive)
2 | CC(C)(C)OC(=O)NCCCCC(NC(=O)C(Cc1c[nH]c2ccccc12)NC(=O)OCC1c2ccccc2-c2ccccc21)C(=O)N1CCCC1C(=O)NCC(N)=O (stereo not given) (Fmoc-WK(Boc)PG-NH2; configuration not given here) | > 100 µM (inactive) | > 100 µM (inactive) | > 100 µM (inactive) | > 100 µM (inactive) | > 100 µM (inactive) | > 100 µM (inactive) | > 100 µM (inactive) | > 100 µM (inactive) | > 100 µM (inactive) | > 100 µM (inactive) | > 100 µM (inactive) | > 100 µM (inactive) | > 100 µM (inactive) | 60.3 µM (inactive) | > 100 µM (inactive) | > 100 µM (inactive) | > 100 µM (inactive) | > 100 µM (inactive) | > 100 µM (inactive) | > 100 µM (inactive)
3 | C=C1CC(C)(COc2ccc3c(C)c(Cl)c(=O)oc3c2)OC1=O (stereo not given) | 11.1 µM (inactive) | 0.331 µM (active) | 0.12 µM (active) | 10.3 µM (inactive) | 1.06 µM (active) | 1.76 µM (inactive) | 3.65 µM (inactive) | 1.9 µM (inactive) | 1.21 µM (inactive) | 2.89 µM (inactive) | 2.31 µM (inactive) | 2.75 µM (inactive) | 3.52 µM (inactive) | 6.12 µM (inactive) | 1.43 µM (inactive) | 2.02 µM (inactive) | 0.461 µM (active) | 0.942 µM (active) | 1.15 µM (inactive) | 1.39 µM (inactive)
4 | CNC1C(OC2C(OC3C(O)C(O)C(O)C(O)C3O)OC(C)C2(O)CO)OC(CO)C(O)C1O.N=C(N)N.NC(=O)O (stereo not given) | > 100 µM (inactive) | > 100 µM (inactive) | > 100 µM (inactive) | > 100 µM (inactive) | > 100 µM (inactive) | > 100 µM (inactive) | > 100 µM (inactive) | > 100 µM (inactive) | > 100 µM (inactive) | > 100 µM (inactive) | > 100 µM (inactive) | > 100 µM (inactive) | > 100 µM (inactive) | > 100 µM (inactive) | > 100 µM (inactive) | > 100 µM (inactive) | > 100 µM (inactive) | > 100 µM (inactive) | > 100 µM (inactive) | > 100 µM (inactive)
5 | CC1CCC2(OC1)OC1CC3C4CCC5CC(O)CCC5(C)C4CC(=O)OC3(C)C1C2C (stereo not given) | > 100 µM (inactive) | > 100 µM (inactive) | > 100 µM (inactive) | > 100 µM (inactive) | > 100 µM (inactive) | > 100 µM (inactive) | > 100 µM (inactive) | > 100 µM (inactive) | > 100 µM (inactive) | > 100 µM (inactive) | > 100 µM (inactive) | > 100 µM (inactive) | > 100 µM (inactive) | > 100 µM (inactive) | > 100 µM (inactive) | > 100 µM (inactive) | > 100 µM (inactive) | > 100 µM (inactive) | > 100 µM (inactive) | > 100 µM (inactive)
